Active and inactive are the calls of the source. The calls are words filed in the database; no cut-off is given here.
Key:
Mus musculus [1] = assay: Adjuvant activity in OVA-immunized female C57BL/6 mouse assessed as induction of antigen-specific Th1 immune responses by measuring increase in anti-OVA specific IgG1 in serum at 50 ug, IM co-administered with OVA antigen on day 0,7 and 14 and measured on day 21 by ELISA method; format: functional, organism-based; details: dose 50.0 µg, time 21.0 day
Mus musculus [2] = assay: Adjuvant activity in OVA-immunized female C57BL/6 mouse assessed as increase IgG antibody titer at 50 ug, sc co-administered with OVA antigen on day 0,7 and 14 and measured on day 14,28,42 by ELISA method; format: functional, organism-based; details: dose 50.0 µg, time 42.0 day
Mus musculus [3] = assay: Adjuvant activity in OVA-immunized female C57BL/6 mouse assessed as increase in IgG antibody titer at 50 ug, IM co-administered with OVA antigen on day 0,7 and 14 and measured on day 14,28,42 by ELISA method; format: functional, organism-based; details: dose 50.0 µg, time 42.0 day
Mus musculus [4] = assay: Adjuvant activity in OVA-immunized female C57BL/6 mouse assessed as induction of antigen-specific Th2 immune responses by measuring increase in anti-OVA specific IgG1 in serum at 50 ug, IM co-administered with OVA antigen on day 0,7 and 14 and measured on day 21 by ELISA method; format: functional, organism-based; details: dose 50.0 µg, time 21.0 day
Mus musculus [5] = assay: Adjuvant activity in OVA-immunized female C57BL/6 mouse assessed as increase IgG2b antibody titer at 50 ug, sc co-administered with OVA antigen on day 0,7 and 14 and measured on day 14,28,42 by ELISA method; format: functional, organism-based; details: dose 50.0 µg, time 42.0 day
[6] = Toxicity in C57BL/6 mouse assessed as effect on body weight change at 50 ug, sc in presence of OVA-antigen measured upto 7 days; format: organism-based; details: in vivo, 168 h, dose 50 µg, time < 7 day
Mus musculus [7] = assay: Adjuvant activity in OVA-immunized female C57BL/6 mouse assessed as increase in IgG2b antibody titer at 50 ug, IM co-administered with OVA antigen on day 0,7 and 14 and measured on day 14,28,42 by ELISA method; format: functional, organism-based; details: dose 50.0 µg, time 42.0 day
[8] = Toxicity in C57BL/6 mouse assessed as effect on body weight change at 50 ug, IM in presence of OVA-antigen measured upto 7 days; details: in vivo, 168 h, dose 50 µg, time < 7 day
Mus musculus [9] = assay: Adjuvant activity in KLH-immunized female C57BL/6 mouse assessed as increase in serum IgG anti-KLH antibody titer at 50 ug, IM co-administered with KLH-antigen on day 0,7 and 14 and measured on day 14,28 and 42 by ELISA method; format: functional, organism-based; details: dose 50.0 µg, time 42.0 day
Mus musculus [10] = assay: Adjuvant activity in OVA-immunized female C57BL/6 mouse assessed as induction of antigen-specific Th1 immune responses by measuring increase in anti-OVA specific IgG2b in serum at 50 ug, IM co-administered with OVA antigen on day 0,7 and 14 and measured on day 21 by ELISA method; format: functional, organism-based; details: dose 50.0 µg, time 21.0 day
Mus musculus [11] = assay: Adjuvant activity in OVA-immunized female C57BL/6 mouse assessed as increase in serum IgG anti-OVA antibody response at 50 ug, IM co-administered with OVA antigen on day 0,7 and 14 and measured on day 21 by ELISA method; format: functional, organism-based; details: dose 50.0 µg, time 21.0 day
Mus musculus [12] = assay: Adjuvant activity in OVA-immunized female C57BL/6 mouse assessed as induction of antigen-specific Th2 immune responses by measuring increase in anti-OVA specific IgG2b in serum at 50 ug, IM co-administered with OVA antigen on day 0,7 and 14 and measured on day 21 by ELISA method; format: functional, organism-based; details: dose 50.0 µg, time 21.0 day
[13] = Toxicity in C57BL/6 mouse assessed as effect on body weight change at 50 ug, IM in presence of KLH measured upto 7 days; details: in vivo, 168 h, dose 50 µg, time < 7 day
Mus musculus [14] = assay: Adjuvant activity in OVA-immunized female C57BL/6 mouse assessed as increase IgG antibody titer at 20 ug, sc co-administered with OVA antigen on day 0,7 and 14 and measured on day 14,28,42 by ELISA method; format: functional, organism-based; details: dose 20.0 µg, time 42.0 day
Mus musculus [15] = assay: Adjuvant activity in OVA-immunized female C57BL/6 mouse assessed as increase IgG2b antibody titer at 20 ug, sc co-administered with OVA antigen on day 0,7 and 14 and measured on day 14,28,42 by ELISA method; format: functional, organism-based; details: dose 20.0 µg, time 42.0 day
Mus musculus [16] = assay: Adjuvant activity in OVA-immunized female C57BL/6 mouse assessed as increase in serum IgG anti-OVA antibody response at 5 ug, IM co-administered with OVA antigen on day 0,7 and 14 and measured on day 14,28 and 42 by ELISA method; format: functional, organism-based; details: dose 5.0 µg, time 42.0 day
[17] = Toxicity in C57BL/6 mouse assessed as effect on body weight change at 20 ug, sc in presence of OVA-antigen measured upto 7 days; format: organism-based; details: in vivo, 168 h, dose 20 µg, time < 7 day
Mus musculus [18] = assay: Adjuvant activity in OVA-immunized female C57BL/6 mouse assessed as increase in serum IgG2b at low dose administered as IM dose co-administered with OVA antigen on day 0,7 and 14 and measured on day 14,28 and 42 by ELISA method; format: functional, organism-based; details: time 42.0 day
Mus musculus [19] = assay: Adjuvant activity in OVA-immunized female C57BL/6 mouse assessed as increase in IgG antibody titer at low dose administered as IM co-administered with OVA antigen on day 0,7 and 14 and measured on day 14,28,42 by ELISA method; format: functional, organism-based; details: time 42.0 day
Mus musculus [20] = assay: Potency index ratio of QS21 to test compound for adjuvant activity in KLH-immunized female C57BL/6 mouse assessed as increase in serum IgG anti-KLH antibody titer at 50 ug, IM co-administered with KLH-antigen on day 0,7 and 14 and measured on day 14,28 and 42 by ELISA method; format: functional; details: dose 50 µg, time 42 day
Mus musculus [21] = assay: Adjuvant activity in OVA-immunized female C57BL/6 mouse assessed as increase in serum IgG1 at low dose administered as IM dose co-administered with OVA antigen on day 0,7 and 14 and measured on day 14,28 and 42 by ELISA method; format: functional, organism-based; details: time 42.0 day
Mus musculus [22] = assay: Adjuvant activity in OVA-immunized female C57BL/6 mouse assessed as increase in IgG2b antibody titer at low dose administered as IM co-administered with OVA antigen on day 0,7 and 14 and measured on day 14,28,42 by ELISA method; format: functional, organism-based; details: time 42.0 day

Structure (SMILES) | Activity (Mus musculus [1]) | Activity (Mus musculus [2]) | Activity (Mus musculus [4]) | Activity (Mus musculus [5]) | Activity [6] | Activity [8] | Activity (Mus musculus [10]) | Activity (Mus musculus [11]) | Activity (Mus musculus [12]) | Activity [13] | Activity (Mus musculus [14]) | Activity (Mus musculus [15]) | also measured
C[C@@H]1O[C@@H](O[C@H]2[C@H](OC(=O)[C@]34CCC(C)(C)C[C@H]3C3=CC[C@@H]5[C@@]6(C)CC[C@H](O)[C@@](C)(C=O)[C@@H]6CC[C@@]5(C)[C@]3(C)CC4)O[C@H](CO)[C@H](NC(=O)CCCCCCCCCCCCC(=O)O)[C@@H]2O)[C@H](O)[C@H](O)[C@H]1O[C@@H]1OC[C@@H](O)[C@H](O)[C@H]1O | Active | Active | Active | Active | Non-toxic | Non-toxic | Active | Active | Active | Non-toxic |  |  | Activity (Mus musculus [3]): Active; Activity (Mus musculus [7]): Active; Activity (Mus musculus [9]): Active
CC1(C)CC[C@]2(C(=O)O[C@@H]3O[C@H](CO)[C@@H](O)[C@H](O[C@@H]4O[C@H](CO)[C@@H](O)[C@H](O[C@@H]5O[C@H](CO)[C@@H](O)[C@H](O[C@@H]6O[C@H](CO)[C@@H](O)[C@H](O[C@@H]7O[C@H](CO)[C@@H](O)[C@H](O)[C@H]7O)[C@H]6O)[C@H]5O)[C@H]4O)[C@H]3O)[C@H](O)C[C@]3(C)C(=CC[C@@H]4[C@@]5(C)CC[C@H](O[C@@H]6O[C@H](CO)[C@@H](O)[C@H](O[C@@H]7O[C@H](CO)[C@@H](O)[C@H](O[C@@H]8O[C@H](CO)[C@@H](O)[C@H](O)[C@H]8O)[C@H]7O)[C@H]6O)[C@@](C)(C=O)[C@@H]5CC[C@]43C)[C@@H]2C1 |  |  |  |  |  |  |  |  |  |  | Active | Active | 
C[C@@H]1O[C@@H](O[C@H]2[C@H](OC(=O)[C@]34CCC(C)(C)C[C@H]3C3=CC[C@@H]5[C@@]6(C)CC[C@H](O)[C@@](C)(C=O)[C@@H]6CC[C@@]5(C)[C@]3(C)CC4)O[C@H](CO)[C@H](NC(=O)CCCCCCCCCCC(=O)O)[C@@H]2O)[C@H](O)[C@H](O)[C@H]1O[C@@H]1OC[C@@H](O)[C@H](O)[C@H]1O |  | Active |  | Active | Non-toxic |  |  |  |  |  |  |  | 
C[C@@H]1O[C@@H](O[C@H]2[C@H](OC(=O)[C@]34CCC(C)(C)C[C@H]3C3=CC[C@@H]5[C@@]6(C)CC[C@H](O)[C@@](C)(C=O)[C@@H]6CC[C@@]5(C)[C@]3(C)CC4)O[C@H](CO)[C@H](NC(=O)CCCCCCCCCCCCCCC(=O)O)[C@@H]2O)[C@H](O)[C@H](O)[C@H]1O[C@@H]1OC[C@@H](O)[C@H](O)[C@H]1O | Active |  | Active |  |  | Non-toxic | Active | Active | Active | Non-toxic | Active | Active | Activity (Mus musculus [16]): Active; Activity [17]: Non-toxic; Activity (Mus musculus [18]): Active; Activity (Mus musculus [19]): Active; fold change (FC) (Mus musculus [20]): 10; Activity (Mus musculus [21]): Active; Activity (Mus musculus [22]): Active

Reference: ChEMBL document CHEMBL6087478, “Chain Length Does Matter: Development of High-Potency QS-21-Based Vaccine Adjuvants” (J Med Chem, 2025)
